Consider four molecules from paper PMC11477000, “Enantioselective Binding of Proton Pump Inhibitors to Alpha1-Acid Glycoprotein and Human Serum Albumin—A Chromatographic, Spectroscopic, and In Silico Study” (International Journal of Molecular Sciences, 2024).

Series [1] deals with α1-acid glycoprotein (AGP). The experiment in a line: van 't Hoff thermodynamic analysis on AGP column. Type of series: binding, human. To be noted: Δ(ΔH°)/Δ(ΔS°). The protocol: The temperature effect was investigated at pH 7 and a 95:5 buffer:IPA eluents ratio, between 10 and 30 °C on both columns. […] The determination of thermodynamic parameters can provide valuable insights into the process of enantiodiscrimination, including its mechanistic aspects. The applied classical van ’t Hoff methodology postulates the existence of solely enantioselective interaction sites on the stationary phase. Nonetheless, it should be emphasized that a more realistic approach would encompass both enantioselective and non-enantioselective interactions. The isoenantioselective temperatures (Tiso) were calculated by dividing Δ(ΔH°) by Δ(ΔS°). At this temperature, enthalpy and entropy compensations negate each other, resulting in the coelution of the two enantiomers and no separation. […]
In the equation, R represents the universal gas constant, T represents the absolute temperature in Kelvin, and k represents the retention factor of the enantiomers. ΔH° stands for the standard enthalpy, while ΔS° represents the standard entropy change of transfer of the solute from the mobile phase to the stationary phase. Φ is the phase ratio of the column. […] Similarly, the difference in the change of standard enthalpy, Δ(ΔH°), and standard entropy, Δ(ΔS°), for the two enantiomers was calculated as follows:(6) lnα=−ΔΔH°/RT+ΔΔS°/R

Another series addresses BSA. Particulars: racemic, ref [39]; cited from earlier work.
For series [2], the target named is T1, HSA (Homo sapiens, UniProt P02768).
T1 construct: purchased Sigma-Aldrich
To be noted: ref [41]; cited from earlier work.

A further series concerns AGP. The experiment in a line: UV titration (Benesi–Hildebrand) with AGP. Format: binding, human. To be noted: human, pH 7.4, UV titration, n = 3; 1 μM AGP, pH 7.4 phosphate buffer, 24 °C, 278 nm; read-out: logKAGP ± Stdev (logarithm of stability constant) (converted). The protocol: The UV-Vis absorption assay is a straightforward and relatively simple method to examine the interactions between small molecules and macromolecules. Changes in the structure of the protein caused by the interacting ligand can lead to alterations in the absorption spectrum. […] Fixed wavelength measurements were conducted at the absorption maxima of AGP and HSA. […] The change in the absorbance and wavelength maximum in the UV spectra during the titration refers to the complex formation between proteins and PPIs. The Benesi–Hildebrand method was used to determine the stability constants based on Equation (7).
The absorption spectra were recorded on a Jasco V-750 spectrophotometer (Jasco, Tokyo, Japan) at 24 °C using 1.0 cm path-length quartz cuvettes. Then, 1 μM HSA and AGP were dissolved in a sodium phosphate buffer solution (pH 7.4; 0.1 M) and their concentration was kept constant. The PPIs were dissolved in DMSO, and further diluted with the AGP or HSA solution. Next, 1000 μL of 1 μM HSA and AGP solutions was titrated with the PPI stock solution in 1 μL steps. The concentration of the PPIs was set to 4.00, 7.98, 11.96, 15.94, 19.90, 23.86, 27.81, and 31.75 μM. The binding constants were determined using the Benesi–Hildebrand equation:(7) A0/A−A0=εPPI/εAPPI−εPPI+εPPI/εAPPI−εPPI×1/K×[C] where A0 is the absorbance of the HSA or AGP at 278 nm, A is the absorbance of the formed complex also at 278 nm, εPPI is the extinction coefficient of the actual PPI, εAPPI is the extinction coefficient of the albumin or AGP and PPI complex, K is the binding coefficient, and [C] is the concentration of the investigated PPI. The plot of A0/A − A0 versus C^−1 has a slope of K^−1. All experiments were performed in triplicate.

Series [3] addresses T1, HSA. Particulars: ref [42]; cited from earlier work.

Where two headings read alike, the source gives them in different places.

T1 sequence (P02768 25-609): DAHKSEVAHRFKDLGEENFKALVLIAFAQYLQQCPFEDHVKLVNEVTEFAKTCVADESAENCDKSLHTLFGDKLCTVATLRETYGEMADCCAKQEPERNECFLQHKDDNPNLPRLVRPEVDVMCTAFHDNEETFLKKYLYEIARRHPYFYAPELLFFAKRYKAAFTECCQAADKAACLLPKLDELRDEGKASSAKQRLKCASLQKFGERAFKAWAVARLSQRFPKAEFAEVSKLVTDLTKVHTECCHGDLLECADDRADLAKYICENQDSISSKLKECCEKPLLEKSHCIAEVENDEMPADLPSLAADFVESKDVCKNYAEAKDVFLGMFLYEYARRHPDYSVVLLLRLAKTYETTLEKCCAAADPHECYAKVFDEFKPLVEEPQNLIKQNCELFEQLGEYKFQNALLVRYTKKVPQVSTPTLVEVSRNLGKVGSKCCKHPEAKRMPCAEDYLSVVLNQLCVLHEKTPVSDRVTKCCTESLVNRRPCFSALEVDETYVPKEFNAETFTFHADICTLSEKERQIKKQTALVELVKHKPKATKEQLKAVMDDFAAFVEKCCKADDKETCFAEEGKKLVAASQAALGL

Molecule `Cc1c(OCC(F)(F)F)ccnc1C[S+]([O-])c1nc2ccccc2[nH]1` (stereo not drawn) [Lansoprazole, lansoprazole] came in with a Tiso isoenantioselective temperature in series [1] of −16.3 °C. On to `COc1ccc2[nH]c([S+]([O-])Cc3ncc(C)c(OC)c3C)nc2c1` (stereo not drawn) [Omeprazole, omeprazole], for which the logK at BSA is recorded as 4.58; at HSA [2], 4.61. Consider `Cc1c(OCC(F)(F)F)ccnc1C[S@@+]([O-])c1nc2ccccc2[nH]1` [R-lansoprazole, dexlansoprazole], for which the Kd in the series with AGP was 27.5 µM. The logK result on HSA [3] is recorded as “logK = 3.44 Binding to subdomain IIA”.

Turning to `Cc1c(OCC(F)(F)F)ccnc1C[S@+]([O-])c1nc2ccccc2[nH]1` [S-lansoprazole], the Kd in the series on AGP is 14.8 µM.
